Results published in patent publication US20250353873A1, “COMPOUNDS AND METHODS FOR MODULATING APOE EXPRESSION” (Ionis Pharmaceuticals, Inc., priority 2024, published 2025).
Marks after values point to notes of the source that are not given here. Strand notation (5' to 3'): a small letter for the sugar, then the base; units joined by * are phosphorothioate-linked, units joined directly phosphodiester-linked; [ ] holds rarer units or linkages, { } end groups; capitals alone tell only the bases. [ms] = mesyl phosphoramidate linkage; e = 2'-O-(2-methoxyethyl) (MOE); k = constrained ethyl (cEt); [5mC] = 5-methylcytosine; d = 2'-deoxy (DNA)

How the values were obtained:
human APOE RNA [1] = assay: Duration of action study in APOE C57BL/6NTac-Apoeem7250 knock-in mice (Example 18); format: in vivo; details: 300 μg ICV
Method: Modified oligonucleotides described above were tested in the APOE C57BL/6NTac-Apoeem7250 knock-in model (described above).
Each mouse received a single intracerebroventricular (ICV) bolus of 300 μg of modified oligonucleotide. A group of 4-6 mice received a single ICV bolus with PBS as a negative control.
Mice were sacrificed at various timepoints as indicated in the table below and RNA was extracted from cortical brain tissue and spinal cord for quantitative real-time RT-PCR analysis of RNA expression of APOE using primer probe set RTS3073 (described herein above). APOE RNA levels were normalized to mouse Ppia. Mouse Ppia was amplified using primer probe set m_cyclo24 (described herein above). Results are presented as percent human APOE RNA relative to the amount of human APOE RNA in PBS treated animals, (% control). Each experiment is identified in separate tables below.

human APOE RNA [2] = assay: Activity in APOE C57BL/6NTac-Apoeem7250 knock-in mice, single ICV bolus, 8 weeks (Example 11); format: in vivo; details: single ICV bolus 300 μg, 8 weeks post treatment, normalized to mouse Ppia
How it was run: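 Cortical and spinal cord human APOE RNA quantified by RT-qPCR 8 weeks after a single 300 μg ICV dose in knock-in mice, Ppia-normalized. Values are percent of levels in PBS-treated animals.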

human APOE RNA [3] = assay: Activity in APOE C57BL/6NTac-Apoeem7250 knock-in mice, single ICV bolus, 20 weeks (Example 13); format: in vivo; details: single ICV bolus 300 μg, 20 weeks post treatment, normalized to mouse Ppia
How it was run: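 Cortical and spinal cord RNA was assayed by real-time RT-PCR for human APOE, normalized to mouse Ppia and reported as percent of PBS controls. Tissue was taken twenty weeks after one 300 μg intracerebroventricular bolus in APOE knock-in mice, 4 per group.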

human APOE RNA [4] = assay: Dose-dependent inhibition of human APOE RNA in HepG2 cells, electroporation, 50,000 cells per well, RT-PCR normalized to GAPDH (Example 4, Tables 8-10); format: cell-based; details: HepG2 cells, electroporation, Table 8
How it was run: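 Readout is percent APOE RNA versus untreated controls, measured by RT-PCR (primer probe set RTS3073) and normalized to human GAPDH. Modified oligonucleotides were delivered by electroporation at varying doses into HepG2 cells plated at 50,000 per well.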

human APOE RNA [5] = assay: Potency (dose response, ED50) in APOE C57BL/6NTac-Apoeem7250 knock-in mice, 4 weeks (Example 14); format: in vivo
Method: Modified oligonucleotides described above were tested in the APOE C57BL/6NTac-Apoeem7250 knock-in mouse model described above.
APOE C57BL/6NTac-Apoeem7250 knock-in mice were divided into groups of 3-4 mice each. A group of 3-4 mice received a single ICV bolus with PBS as a negative control.
Four weeks post treatment, mice were sacrificed, and RNA was extracted from cortical brain tissue and spinal cord for quantitative real-time RT-PCR analysis of RNA expression of […] using human primer probe set RTS3073 (described herein above). APOE RNA levels were normalized to mouse Ppia. Mouse Ppia was amplified using primer probe set m_cyclo24 (described herein above). Results are presented as percent human APOE RNA relative to the amount of APOE RNA in PBS treated animals, (% control). N.C. indicates values that were not calculated. Each experiment is identified in separate tables below.
The half maximal effective dose (ED50) of each modified oligonucleotide was calculated using GraphPad Prism 10 software (GraphPad Software, San Diego, CA).

human APOE RNA [6] = assay: Activity in APOE C57BL/6NTac-Apoeem7250 knock-in mice, single ICV bolus, 4 weeks (Example 10); format: in vivo; details: single ICV bolus 300 μg, 4 weeks post treatment, normalized to mouse Ppia
How it was run: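 Human APOE RNA, quantified by real-time RT-PCR with RTS3073 and normalized to mouse Ppia, was read in cortical brain and spinal cord 4 weeks post dosing. Dosing was a single ICV bolus of 300 μg per knock-in mouse; values are % of PBS-treated animals.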

human APOE RNA [7] = assay: Activity in APOE C57BL/6NTac-Apoeem7250 knock-in mice, single ICV bolus, 16 weeks (Example 12); format: in vivo; details: single ICV bolus 300 μg, 16 weeks post treatment, normalized to mouse Ppia
How it was run: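 A single 300 μg intracerebroventricular dose was given, with PBS-treated mice as reference; cortical and spinal cord tissue was taken 16 weeks later. RT-qPCR quantified human APOE RNA, Ppia-normalized, expressed relative to PBS animals (% control).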

Substance: 1809636 (kA*e[5mC]eTeT*eG*kG*dT*dG[ms]dA[ms]dA[ms]dT*d[5mC]*dT*dT*dT*dA[ms]kT*kT*eA*kA; antisense) [Compound 1809636]
- APOE RNA (% control) Cortex (human APOE RNA [1]; 56 days post-dose): 32 % control
- APOE RNA (% control) Cortex (human APOE RNA [1]; 112 days post-dose): 33 % control
- APOE RNA (% control) Cortex (human APOE RNA [1]; 224 days post-dose): 65‡ % control
- APOE RNA (% control) Spinal Cord (human APOE RNA [1]; 56 days post-dose): 14 % control
- APOE RNA (% control) Spinal Cord (human APOE RNA [1]; 112 days post-dose): 13 % control
- APOE RNA (% control) Spinal Cord (human APOE RNA [1]; 224 days post-dose): 41‡ % control
- APOE RNA (% control) Cortex (human APOE RNA [2]): 16 % control
- APOE RNA (% control) Spinal Cord (human APOE RNA [2]): 11 % control

Substance: 1778154: modified oligonucleotide complementary to human APOE RNA (e[5mC]*eT*eTeGeGeT*dG[ms]dA[ms]dA*dT*d[5mC]*dT*dT*dT*dA*dT*kTkAeA*eA; antisense) [compound 1778154]
- APOE RNA (% control) Cortex (human APOE RNA [3]; cortex): 82 % control
- APOE RNA (% control) Spinal Cord (human APOE RNA [3]; spinal cord): 46 % control
- APOE RNA (% UTC) 5 nM (human APOE RNA [4]; 24-hour treatment, 5 nM): 101 % UTC
- APOE RNA (% UTC) 13 nM (human APOE RNA [4]; 24-hour treatment, 13 nM): 97 % UTC
- APOE RNA (% UTC) 33 nM (human APOE RNA [4]; 24-hour treatment, 33 nM): 91 % UTC
- APOE RNA (% UTC) 82 nM (human APOE RNA [4]; 24-hour treatment, 82 nM): 98 % UTC
- APOE RNA (% UTC) 205 nM (human APOE RNA [4]; 24-hour treatment, 205 nM): 76 % UTC
- APOE RNA (% UTC) 512 nM (human APOE RNA [4]; 24-hour treatment, 512 nM): 58 % UTC
- APOE RNA (% UTC) 1,280 nM (human APOE RNA [4]; 24-hour treatment, 1,280 nM): 47 % UTC
- APOE RNA (% UTC) 3,200 nM (human APOE RNA [4]; 24-hour treatment, 3,200 nM): 22 % UTC
- APOE RNA (% UTC) 8,000 nM (human APOE RNA [4]; 24-hour treatment, 8,000 nM): 35 % UTC
- APOE RNA (% UTC) 20,000 nM (human APOE RNA [4]; 24-hour treatment, 20,000 nM): 8 % UTC
- IC50 (human APOE RNA [4]; reduction of human APOE RNA, 24-hour treatment): 1080 nM
- APOE RNA (% control) Cortex (human APOE RNA [5]; cortex, ICV dose 10 μg): 89 % control
- APOE RNA (% control) Cortex (human APOE RNA [5]; cortex, ICV dose 30 μg): 89 % control
- APOE RNA (% control) Cortex (human APOE RNA [5]; cortex, ICV dose 100 μg): 70 % control
- APOE RNA (% control) Cortex (human APOE RNA [5]; cortex, ICV dose 300 μg): 56 % control
- APOE RNA (% control) Cortex (human APOE RNA [5]; cortex, ICV dose 700 μg): 27 % control
- ED 50 (μg) Cortex (human APOE RNA [5]; cortex, single ICV bolus, GraphPad Prism 10): 279.4 µg
- APOE RNA (% control) Spinal Cord (human APOE RNA [5]; spinal cord, ICV dose 10 μg): 105 % control
- APOE RNA (% control) Spinal Cord (human APOE RNA [5]; spinal cord, ICV dose 30 μg): 137 % control
- APOE RNA (% control) Spinal Cord (human APOE RNA [5]; spinal cord, ICV dose 100 μg): 38 % control
- APOE RNA (% control) Spinal Cord (human APOE RNA [5]; spinal cord, ICV dose 300 μg): 43 % control
- APOE RNA (% control) Spinal Cord (human APOE RNA [5]; spinal cord, ICV dose 700 μg): 47 % control
- ED 50 (μg) Spinal Cord (human APOE RNA [5]; spinal cord, single ICV bolus, GraphPad Prism 10): 243.1 µg
- APOE RNA (% control) Cortex (human APOE RNA [6]; cortex): 30 % control
- APOE RNA (% control) Spinal Cord (human APOE RNA [6]; spinal cord): 44 % control
- APOE RNA (% control) Cortex (human APOE RNA [7]; cortex): 50 % control
- APOE RNA (% control) Spinal Cord (human APOE RNA [7]; spinal cord): 29 % control
- APOE RNA (% control) Cortex (human APOE RNA [2]): 29 % control
- APOE RNA (% control) Spinal Cord (human APOE RNA [2]): 32 % control

Substance: 1810064: mixed MOE/cEt gapmer CTTGGTGAATCTTTATTAAAC, sugar eeeeekddddddddddeeeee, linkages ssoooszzzssssszsooss (e[5mC]*eT*eTeGeGkT*dG[ms]dA[ms]dA[ms]dT*d[5mC]*dT*dT*dT*dA[ms]dT*eTeAeA*eA*e[5mC]) [compound 1810064]
- APOE RNA (% control) Cortex (human APOE RNA [1]; 28 days post-dose): 40 % control
- APOE RNA (% control) Cortex (human APOE RNA [1]; 112 days post-dose): 62 % control
- APOE RNA (% control) Cortex (human APOE RNA [1]; 140 days post-dose): 63 % control
- APOE RNA (% control) Spinal Cord (human APOE RNA [1]; 28 days post-dose): 22 % control
- APOE RNA (% control) Spinal Cord (human APOE RNA [1]; 112 days post-dose): 31 % control
- APOE RNA (% control) Spinal Cord (human APOE RNA [1]; 140 days post-dose): 48 % control
- APOE RNA (% control) Cortex (human APOE RNA [2]): 23 % control
- APOE RNA (% control) Spinal Cord (human APOE RNA [2]): 15 % control

Substance: 1809637 (kA*e[5mC]eTeT*eG*kG*dT*dG[ms]dA[ms]dA[ms]dT*d[5mC]*dT*dT*dT*dA[ms]kT*kT*kA*kA; antisense) [Compound 1809637]
- APOE RNA (% control) Cortex (human APOE RNA [1]; 56 days post-dose): 26‡ % control
- APOE RNA (% control) Cortex (human APOE RNA [1]; 112 days post-dose): 42 % control
- APOE RNA (% control) Cortex (human APOE RNA [1]; 224 days post-dose): 58‡ % control
- APOE RNA (% control) Spinal Cord (human APOE RNA [1]; 56 days post-dose): 19 % control
- APOE RNA (% control) Spinal Cord (human APOE RNA [1]; 112 days post-dose): 17 % control
- APOE RNA (% control) Spinal Cord (human APOE RNA [1]; 224 days post-dose): 36‡ % control
- APOE RNA (% control) Cortex (human APOE RNA [2]): 20 % control
- APOE RNA (% control) Spinal Cord (human APOE RNA [2]): 9 % control
